# System: Hep3b monoculture and triculture spheroids
# Experiment: Sorafenib treatment of tumour spheroids in devices with and without vasculature (GFP signal of live cells)
# Type: cell-based
# Conditions: 10 μM Sorafenib for 7 days from day 5, vascularised vs non-vascularised, FIG. 9B
# Method: Next, the effect of Sorafenib treatment on the tumour spheroids and the vasculature was investigated. In this example, Hep3b monoculture and triculture spheroids were seeded in the devices with and without vasculature. At day 5, 10 μM of Sorafenib was used to treat the tumours for 7 days. GFP signal (representing the live cells) was quantified along the time.
# In FIG. 9A, representative images from all the conditions are shown at Day 0 (starting of the drug treatment) and Day 5 post-treatment. FIG. 9B is a graph showing the GFP signal over time represented from 3 independent replicates.
compound,measurement,value
CNC(=O)c1cc(Oc2ccc(NC(=O)Nc3ccc(Cl)c(C(F)(F)F)c3)cc2)ccn1 [Sorafenib],viability of spheroids (GFP signal representing the live cells),viability of the vascularised spheroids is lower compared to the non-vascularised spheroids

# — patent US20240018483A1, “A DEVICE AND METHOD FOR VASCULARISING A CELL AGGREGATE” (AGENCY FOR SCIENCE, TECHNOLOGY AND RESEARCH, priority 2020, published 2024)
